# From US8168596B2, “Use of cycloartane compounds for treating arthritis” (NuLiv Holding Inc., priority 2008, dated 2012)
# Columns and labels:
# [1] = system: MMP1 mRNA; assay: RT-PCR of MMP1 mRNA expression in SW1353 cells; type: cell-based, human; conditions: for MMP1 mRNA expression after AS4 treatment followed by PMA: then 100 ng/mL PMA 24 h; for MMP1 mRNA expression after only AS4 treatment: 24 h, no PMA
# Protocol: First of all, the interaction between TIMP1 mRNA expression and MMP1 mRNA expression in human SW1353 cell line after only AS4 treatment was studied. […] The SW1353 cells were then collected for RT-PCR analysis.
# In a second testing, the effect of AS4 treatment followed by PMA treatment was also studied. The SW1353 cells were first treated with astragaloside IV (AS4) at a concentration of 0.01 μM, 0.1 μM, or 1 μM, followed by incubation for 24 hours. Then PMA was added into each well, followed by incubation for 24 hours. These SW1353 cells were also collected for RT-PCR analysis in the end of the second testing.
# Total RNAs were isolated from the cultured human cells using NucleoSpin RNAII Kit (Macherey-Nagel Inc., PA, USA). Five μg of RNA was reverse transcribed in a total 20 μl transcription mixture. The reaction tube containing primers (oligo(dT)), RNA, 10 mM dNTP Mix, and DEPC-treated water was first incubated at 65° C. for 5 minutes. Eight μl master reaction mixture containing 4 μl 5× cDNA synthesis Buffer, 1 μl 0.1 M DTT, 1 μl RNase OUT™ (40U/μl), 1 μl DEPC-Treated water, and 1 μl SuperScript™II was then added into the reaction tube. The reaction tube was then incubated at 50° C. for 60 minutes, followed by incubation at 85° C. for 5 minutes. Finally, 1 μl RNase H was added at 37° C. and the reaction tube was incubated for 20 minutes. The resulting cDNA was further amplified by PCR. The relevant primers for the following PCR reaction were listed below.
# (i) The MMP1 forward primer is 5′-ACTCTGGAGTAATGTCACACCT-3′ (SEQ ID NO: 1), and the MMP1 reverse primer is 5′-GTTGGTCCACCTTTCATCTTCA-3′ (SEQ ID NO: 2);
# In addition, the PCR reaction of MMP1 cDNA was preformed as follows: 95° C. for 5 min, followed by 35 cycles of 94° C. for 30 sec, 60° C. for 30 sec, and 72° C. for 30 sec, and then 72° C. for 10 min followed by maintaining at 4° C. Similarly, the PCR reaction of TIMP1 cDNA was performed as follows: 94° C. for 5 min, followed by 35 cycles of 94° C. for 30 sec, 60° C. for 30 sec, and 72° C. for 30 sec, and then 72° C. for 10 min followed by maintaining at 4° C. The PCR reaction of GAPDH cDNA was performed as follows: 94° C. for 5 min, followed by 18 cycles of 94° C. for 30 sec, 54° C. for 30 sec, and 72° C. for 30 sec, and then 72° C. for 30 sec followed by maintaining at 4° C. These PCR products were analyzed by electrophoresis on a 1.5% gel.
# [2] = system: MMP-9; assay: Zymography of MMP-9 from pre-treated SW1353 cells; type: cell-based, human; conditions: PMA-pre-treated SW1353; 0.1 μM, 24 h
# Protocol: At the beginning of the experiment, the cells were pre-treated with 100 ng/mL PMA or 10 ng/mL IL-1β for 24 hours. The cells were then treated with 0.1 μM Dexamethasone, various astragaloside compounds (0.1 μM) or extracts of Astragalus membranaceous (1 μg/mL) at indicated dosages for another 24 hours. For control sample, 0.1% DMSO was used as a negative control for these experiments. The conditioned culture mediums were then centrifuged, 2-fold concentrated and collected for assay of collagens or MMPs secreted into the culture medium.
# The proteolytic activities of MMPs from SW1353 cells were measured essentially as described previously (Circ Res, 1999; 85:906-911). The cells were lysed in lysis buffer (1% Triton X-100, 50 mM Tris-Cl, pH 7.4, 180 mM NaCl, 1 mM EDTA). The samples were measured for their protein concentration using the bicinchoninic acid (BCA) protein assay kit as described. Samples of concentrated conditioned medium and cell lysates were mixed with non-reducing electrophoresis loading buffer and subjected to electrophoresis under non-reducing conditions. The electrophoresis was carried out on a 10% SDS-PAGE co-polymerized with 2 mg/mL gelatin or casein (Sigma, St. Louis, Mo. USA). For zymographic analysis of pro-MMP-2 and activated MMP-2, the total 20 μg of culture medium were used for electrophoresis. Following electrophoresis, renaturation of the proteins was achieved by incubating the gels twice in 25 g/L Triton X-100 at room temperature for 10 min. Subsequently the gels were incubated in 50 mM Tris-HCl, pH 7.5 containing 0.2 M NaCl, 0.02% Brij35 and 10 mM CaCl2 at 37° C. for 18 hours. After the gels were stained with Coomassie Brilliant Blue R-250 and destained, zones of proteolytic activities became visible as transparent bands in the stained gel. In order to obtain higher sensitivity, the gels were further destained in a solution of 1% Triton X-100 (1 to 2 hours). This procedure increased the signal-to-noise ratio, allowing the visualization of faint gelatinase bands at 92 kDa, 125 kDa and greater than 200 kDa. Zymograms were read using a Molecular Dynamics (Sunnyvale, Calif., USA) computing laser densitometer with Image Quant software.
structure (smiles),measurement,setting,value
"CC(C)(O)[C@@H]1CC[C@](C)([C@H]2[C@@H](O)C[C@@]3(C)[C@@H]4C[C@H](O[C@@H]5O[C@H](CO)[C@@H](O)[C@H](O)[C@H]5O)[C@H]5C(C)(C)[C@@H](O[C@@H]6OC[C@@H](O)[C@H](O)[C@H]6O)CC[C@@]56C[C@@]46CC[C@]23C)O1 [AS4, Astragaloside IV]",MMP1 mRNA expression after AS4 treatment followed by PMA,[1]; AS4 0.01 μM 24 h,0.98
same,MMP1 mRNA expression after only AS4 treatment,[1]; AS4 0.01 μM,0.97
same,MMP1 mRNA expression after AS4 treatment followed by PMA,[1]; AS4 0.1 μM 24 h,0.84
same,MMP1 mRNA expression after only AS4 treatment,[1]; AS4 0.1 μM,1.07
same,MMP1 mRNA expression after AS4 treatment followed by PMA,[1]; AS4 1 μM 24 h,0.53
same,MMP1 mRNA expression after only AS4 treatment,[1]; AS4 1 μM,0.93
same,"MMP-9, Zymography, relative to Ctrl 1.00",[2],1.04
